{
  "source": "patent US20010012832A1",
  "about": "“Method of hormone treatment for patients with symptoms consistent with multiple sclerosis” (priority 1999, published 2001)",
  "key": {"[1]": {"tested_on": "Somatomedin C Blood Levels", "assay": "Somatomedin C blood levels before and after low dose-high frequency human growth hormone administration", "assay_type": "in vivo", "settings": "47 patients; after vs before hGH", "text": "IGF-I is directly dependent upon the secretion of HGH by the pituitary gland, so therefore there is a direct linkage between increased secretion of HGH and increased production of IGF-I. Table II presents the effects of the low dose at high frequency human growth hormone administration (low dose-high frequency) contemplated by the invention on IGF-I (somatomedin C) blood levels. FIGS. 8 and 9 present the peak IGF-I levels in males and females, respectively, before and after administration of […]. FIGS. 8 and 9 show mean, minimum and maximum, and 25, 50, and 75 percentile for 204 males and 91 females, respectively. The method of the invention also contemplates that the HGH is administered in keeping with the way the pituitary secretes HGH naturally. The low dose-high frequency method mimics the pituitary gland. The pituitary secretes HGH 24 hours a day, with the peaks during the first two hours of sleep. The method contemplates that the patients take lower doses more frequently to try to mimic the natural rhythm of the body as much as possible. The invention contemplates that the patients take HGH injections at least twice daily. A preferred regimen calls for subcutaneous injections of doses less than 0.5 mg per day (approximately 1-3 I.U.), administered twice daily. Typical doses for this regimen range from 4 units per week to 8 units per week."}, "[2]": {"tested_on": "adult female mice having induced EAE", "settings": "0.6 mg subcutaneously over a ten day period; vs placebo; cited from earlier work"}, "IGF-I levels": {"tested_on": "IGF-I levels", "assay": "Peak IGF-I levels in males and females before and after administration", "assay_type": "in vivo, human", "text": "IGF-I is directly dependent upon the secretion of HGH by the pituitary gland, so therefore there is a direct linkage between increased secretion of HGH and increased production of IGF-I. Table II presents the effects of the low dose at high frequency human growth hormone administration (low dose-high frequency) contemplated by the invention on IGF-I (somatomedin C) blood levels. FIGS. 8 and 9 present the peak IGF-I levels in males and females, respectively, before and after administration of […]. FIGS. 8 and 9 show mean, minimum and maximum, and 25, 50, and 75 percentile for 204 males and 91 females, respectively.\nThe method of determining the level of the select group of hormones may be accomplished by a simple blood test. A patients' blood is evaluated for the hormone levels of the select group of hormones and those levels are compared to the optimal or predetermined physiological levels set forth in Table I. Based on the comparison of a patient's hormone levels with the optimal or predetermined physiological levels, a regimen is established for the patient for the replenishment of the level of deficient hormones to optimal physiological levels. It is further contemplated, that after the initial evaluation and the establishment of the regimen, a patient is monitored every 30 days, by a similar blood test, until the patient attains the optimal or predetermined physiological level, and the dosages of hormone supplementation are adjusted accordingly. Once the target levels are established, the regimen directs that the patient continue to follow the established dosage of supplemental hormones indefinitely to maintain the optimal or predetermined physiological levels. Periodic blood tests are subsequently administered to assure that the optimal or predetermined physiological levels are maintained."}},
  "data": [
    {"substance": "human growth hormone [hGH]", "values": [
      {"measurement": "Somatomedin C Blood Levels Increase, Mean", "setting": "[1]", "value": 61.0, "unit": "%"}
    ]},
    {"substance": "Insulin-like Growth Factor-I [IGF-I]", "values": [
      {"measurement": "Clinical deficits in EAE mice", "setting": "[2]", "value": "reduced deficits"},
      {"measurement": "Lesions in EAE mice", "setting": "[2]", "value": "reduced numbers and sizes of inflammatory, demyelinating and demyelinated lesions"},
      {"measurement": "Peak IFG levels FEMALES CHANGE, 25%ile", "setting": "IGF-I levels; 91 females", "value": 26},
      {"measurement": "Peak IFG levels FEMALES CHANGE, 50%ile", "setting": "IGF-I levels; 91 females", "value": 72},
      {"measurement": "Peak IFG levels FEMALES CHANGE, 75%ile", "setting": "IGF-I levels; 91 females", "value": 128},
      {"measurement": "Peak IFG levels FEMALES CHANGE, MAX", "setting": "IGF-I levels; 91 females", "value": 231},
      {"measurement": "Peak IFG levels FEMALES CHANGE, MEAN", "setting": "IGF-I levels; 91 females", "value": 74.0},
      {"measurement": "Peak IFG levels FEMALES CHANGE, MEDIAN", "setting": "IGF-I levels; 91 females", "value": 72},
      {"measurement": "Peak IFG levels FEMALES CHANGE, MIN", "setting": "IGF-I levels; 91 females", "value": "−93"},
      {"measurement": "Peak IFG levels FEMALES AFTER, 25%ile", "setting": "IGF-I levels; 91 females, before 111", "value": 177},
      {"measurement": "Peak IFG levels FEMALES AFTER, 50%ile", "setting": "IGF-I levels; 91 females, before 164", "value": 240},
      {"measurement": "Peak IFG levels FEMALES AFTER, 75%ile", "setting": "IGF-I levels; 91 females, before 205", "value": 294},
      {"measurement": "Peak IFG levels FEMALES AFTER, MAX", "setting": "IGF-I levels; 91 females, before max 311", "value": 378},
      {"measurement": "Peak IFG levels FEMALES AFTER, MEAN", "setting": "IGF-I levels; 91 females, before mean 162.2, mean 133.4 days", "value": 236.3},
      {"measurement": "Peak IFG levels FEMALES AFTER, MEDIAN", "setting": "IGF-I levels; 91 females, before median 154", "value": 240},
      {"measurement": "Peak IFG levels FEMALES AFTER, MIN", "setting": "IGF-I levels; 91 females, before min 41", "value": 52},
      {"measurement": "Peak IFG levels MALES CHANGE, 25%ile", "setting": "IGF-I levels; 204 males", "value": 24},
      {"measurement": "Peak IFG levels MALES CHANGE, 50%ile", "setting": "IGF-I levels; 204 males", "value": 76},
      {"measurement": "Peak IFG levels MALES CHANGE, 75%ile", "setting": "IGF-I levels; 204 males", "value": 125},
      {"measurement": "Peak IFG levels MALES CHANGE, MAX", "setting": "IGF-I levels; 204 males", "value": 258},
      {"measurement": "Peak IFG levels MALES CHANGE, MEAN", "setting": "IGF-I levels; 204 males", "value": 74.4},
      {"measurement": "Peak IFG levels MALES CHANGE, MEDIAN", "setting": "IGF-I levels; 204 males", "value": 75.5},
      {"measurement": "Peak IFG levels MALES AFTER, 25%ile", "setting": "IGF-I levels; 204 males, before 147", "value": 217},
      {"measurement": "Peak IFG levels MALES AFTER, 50%ile", "setting": "IGF-I levels; 204 males, before 183", "value": 273},
      {"measurement": "Peak IFG levels MALES AFTER, 75%ile", "setting": "IGF-I levels; 204 males, before 231", "value": 325},
      {"measurement": "Peak IFG levels MALES AFTER, MAX", "setting": "IGF-I levels; 204 males, before max 361", "value": 396},
      {"measurement": "Peak IFG levels MALES AFTER, MEAN", "setting": "IGF-I levels; 204 males, before mean 192.3, mean 118.5 days", "value": 266.7},
      {"measurement": "Peak IFG levels MALES AFTER, MEDIAN", "setting": "IGF-I levels; 204 males, before median 183", "value": 272.5},
      {"measurement": "Peak IFG levels MALES AFTER, MIN", "setting": "IGF-I levels; 204 males, before min 21", "value": 63}
    ]}
  ]
}
